Data on 4 compounds can be found in patent US20250228832A1, “METHODS FOR TREATING DISORDERS AMELIORATED BY MUSCARINIC RECEPTOR ACTIVATION” (KARUNA THERAPEUTICS, INC., priority 2022, published 2025).

This experiment concerns the target T1, human M3 receptor (Homo sapiens, UniProt P20309).
T1 construct: expressed in transfected cells
Nature of the experiment: HTRF IP-One curve shift assay, M3. The class given is cell-based. How it is done:
HTRF IP-One assays were performed using frozen cell aliquots prepared from CHO-K1 cell lines stably expressing human M1, M3, or M5 receptors. Cells were frozen following typical cell freezing protocols. […] Dissociated cells were quenched in full media and collected by centrifugation at 290×g for 5 min. […] 1 mL aliquots of cells were dispensed into cryovial tubes and frozen in a controlled rate cryo-freezer container at −80° C. Cells were stored at −80° C. (or in liquid nitrogen if stored for at least six months) until the day of the assay.
On the day before the assay, frozen cells were rapidly thawed in a 37° C. water bath, brought up in 20 mL of full media, and collected via centrifugation at 290×g for 5 min. […] Next, […] of cells (10,000 cells/well) were dispensed into 384-well coming plates in triplicate. Cells were incubated overnight in a 37° C., 5% CO2 cell incubator.
Then, 2 μL of test compounds were added to the cells and incubated for 10 min at 37° C. in a 5% CO2 cell incubator. Next, 2 μL of diluted agonists serially diluted in assay buffer at 7× final assay concentration was added to assay plates. Finally, assay plates were incubated for two hours at 37° C. in a 5% CO2 cell incubator.
Six μL of IP-1 detection reagents (IP-One Gq HTRF kit, Cisbio Cat #62IPAPEJ) were dispensed to the cells. First, the plates were incubated for two hours at room temperature (IP-One detection reagents were made according to Cisbio protocol). Then, plates were read on an Envision plate reader following the Cisbio guidelines.
Raw data for all assays was transmitted directly from plate readers into the Beacon database for processing. All assay plates contained positive and negative control wells for data normalization and scaling. […] All control wells contained DMSO at a final assay concentration that matched the test compound wells.
Counts from the standard curve wells were used to generate a sigmoidal standard curve, which was used to transform the raw counts from each well on the plate (scaling control wells and compound wells) into a pmol/well IP1 value.
(Time-resolved FRET reads energy transfer from a long-lived donor to a nearby acceptor.)

Where [1] appears, read: Emraclidine concentration 41.2 nM, read-out: Emax.
Setting [2] is: Emraclidine concentration 123 nM, read-out: Emax.
[3] abbreviates: Emraclidine concentration 370 nM.
Where [4] appears, read: Emraclidine concentration 1110 nM, read-out: Emax.
Where [5] appears, read: Emraclidine concentration 3330 nM, read-out: Emax.
Where [6] appears, read: MK-4710 concentration 41.2 nM, read-out: Emax.
Setting [7] is: MK-4710 concentration 123 nM, read-out: Emax.
[8] abbreviates: MK-4710 concentration 1110 nM, read-out: Emax.
Where [9] appears, read: MK-4710 concentration 3330 nM, read-out: Emax.

By EC50 is commonly meant the midpoint of the concentration-response curve. What is called Emax is the greatest response seen or fitted, relative to the assay's reference.

SMILES strings stand for the structures. Like-named read-outs stand apart in the source and are kept apart here.

T1 sequence (P20309 whole entry): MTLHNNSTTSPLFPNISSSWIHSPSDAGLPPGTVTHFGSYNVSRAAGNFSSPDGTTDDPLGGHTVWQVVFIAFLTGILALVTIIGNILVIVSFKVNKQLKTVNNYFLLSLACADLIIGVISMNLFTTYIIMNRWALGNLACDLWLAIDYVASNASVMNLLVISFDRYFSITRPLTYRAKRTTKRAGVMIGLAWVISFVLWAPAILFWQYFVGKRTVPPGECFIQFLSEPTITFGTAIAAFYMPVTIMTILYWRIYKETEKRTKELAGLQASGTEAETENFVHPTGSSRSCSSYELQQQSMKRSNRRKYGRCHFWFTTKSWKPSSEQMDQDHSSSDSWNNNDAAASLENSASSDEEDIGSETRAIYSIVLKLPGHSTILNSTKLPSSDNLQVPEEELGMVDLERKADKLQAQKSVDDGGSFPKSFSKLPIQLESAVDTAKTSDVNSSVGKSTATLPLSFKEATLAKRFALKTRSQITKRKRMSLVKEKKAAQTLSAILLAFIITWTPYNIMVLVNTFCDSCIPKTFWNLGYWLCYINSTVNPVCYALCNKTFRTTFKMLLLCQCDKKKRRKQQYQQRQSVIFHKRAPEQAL

`CCCCCOc1nsnc1C1=CCCCN1C` [KTX-517, 3-(1-methyl-1,4,5,6-tetrahydropyridin-2-yl)-4-(pentyloxy)-1,2,5-thiadiazole]: the EC50 runs as follows: (Emraclidine concentration 0 nM) 0.0244 µM; (MK-4710 concentration 0 nM) 0.0338 µM. Moreover, the Emax (Emraclidine concentration 0 nM) amounted to 42.7%; the Emax under setting [1] turned out to be 45.3%; the Emax under setting [2] was 50.2%; the Emax under setting [4] was determined as 54.8%; the Emax under setting [5] is 59.6%; the maximum response (Emax) (MK-4710 concentration 0 nM) amounted to 46.7%. Also, the maximal effect (Emax) by setting is: under setting [6], 49.5%; under setting [7], 48.3%; under setting [8], 51.1%; under setting [9], 64.4%. Besides, the Emax at […] was 52.1% under setting [3], 43% (Emraclidine concentration […]), 53.4% (MK-4710 concentration 370 nM) and 45.6% (MK-4710 concentration […]). The “α (cooperativity, affinity shift)” value is listed as 1.0 (M4 PAM Emraclidine) and 7.7 (M4 PAM MK-4710). Besides, the “β (cooperativity, efficacy shift)” value runs as follows: (M4 PAM Emraclidine) 2.8; (M4 PAM MK-4710) 1.1. The “τ (agonist pharmacology)” value was 0.0 (M4 PAM Emraclidine) and 0.0 (M4 PAM MK-4710).
As to `CC1OC2(CS1)CN1CCC2CC1` (stereo not drawn) [cevimeline, Cevimeline, reference compound], the EC50 is, setting by setting: (Emraclidine concentration 0 nM) 3.27 µM; (MK-4710 concentration 0 nM) 6.36 µM; (MK-4710 concentration 41.2 nM) 7.6 µM; (MK-4710 concentration 123 nM) 4.88 µM; (MK-4710 concentration 370 nM) 9.67 µM; (MK-4710 concentration 1110 nM) 11.2 µM. The EC50 reads like this: (MK-4710 concentration 3330 nM) 4.11 µM; (MK-4710 concentration […]) 11.5 µM. Also, the maximal effect (Emax) reads like this: (Emraclidine concentration 0 nM) 97.9%; under setting [1], 96.7%; under setting [2], 83.8%; under setting [4], 125%; under setting [5], 83.9%; (MK-4710 concentration 0 nM) 118.7%. The Emax under setting [6] is 151%, the Emax under setting [7] amounted to 137%, the maximal response (Emax) under setting [8] was found to be 150% and the maximal effect (Emax) under setting [9] came to 93.1%. In addition, the Emax at […] under setting [3] is 87.8%, the Emax at […] (Emraclidine concentration […]) turned out to be 77.3%, the maximal effect (Emax) at […] (MK-4710 concentration 370 nM) was found to be 163% and the maximum response (Emax) at […] (MK-4710 concentration […]) amounted to 159%. In addition, the “α (cooperativity, affinity shift)” value is, setting by setting: (M4 PAM Emraclidine) 1.0; (M4 PAM MK-4710) 2.1. Moreover, the “β (cooperativity, efficacy shift)” value reads like this: (M4 PAM Emraclidine) 1.1; (M4 PAM MK-4710) 0.6. The “τ (agonist pharmacology)” value was found to be 0.1 (M4 PAM Emraclidine) and 0.0 (M4 PAM MK-4710).
For the compound `CCCCCCCOc1nsnc1C1=CCCCN1C` [KTX-593, 3-(heptyloxy)-4-(1-methyl-1,4,5,6-tetrahydropyridin-2-yl)-1,2,5-thiadiazole], the EC50 (Emraclidine concentration 0 nM) stood at 0.224 µM and the EC50 (MK-4710 concentration 0 nM) was 0.045 µM. Besides, the maximal response (Emax) turned out to be 63.5% (Emraclidine concentration 0 nM); 63.9% under setting [1]; 68.2% under setting [2]; 64.6% under setting [4]; 73% under setting [5]; 80.8% (MK-4710 concentration 0 nM). The maximal response (Emax) was determined as 75.4% under setting [6], 66.6% under setting [7], 74.3% under setting [8] and 86% under setting [9]. For the same compound, the Emax at […] came out at 73.4% under setting [3], 71.1% (Emraclidine concentration […]), 76.7% (MK-4710 concentration 370 nM) and 72.7% (MK-4710 concentration […]). For the same compound, the “α (cooperativity, affinity shift)” value by setting is: (M4 PAM Emraclidine) 7.6; (M4 PAM MK-4710) 6.2. In addition, the “β (cooperativity, efficacy shift)” value reads like this: (M4 PAM Emraclidine) 1.1; (M4 PAM MK-4710) 1.6. Further, the “τ (agonist pharmacology)” value is reported as 0.0 (M4 PAM Emraclidine) and 0.0 (M4 PAM MK-4710).
As for `CCCCCCOc1nsnc1C1=CCCN(C)C1` [xanomeline, reference compound], the half-maximal effective concentration (EC50) was found to be 0.155 µM (Emraclidine concentration 0 nM) and 0.147 µM (MK-4710 concentration 0 nM). Also, the Emax (Emraclidine concentration 0 nM) is recorded as 77.3%; the maximum response (Emax) under setting [1] was determined as 81.9%; the Emax under setting [2] worked out at 85.7%; the Emax under setting [4] was found to be 89.1%; the Emax under setting [5] was found to be 80.3%; the Emax (MK-4710 concentration 0 nM) is 84.2%. Moreover, the Emax is, setting by setting: under setting [6], 94.3%; under setting [7], 90.3%; under setting [8], 81%; under setting [9], 81.8%. Besides, the Emax at […] under setting [3] was determined as 91.6%, the Emax at […] (Emraclidine concentration […]) was 74.5%, the Emax at […] (MK-4710 concentration 370 nM) turned out to be 88.9% and the maximum response (Emax) at […] (MK-4710 concentration […]) came to 81.5%. Moreover, the “τ (agonist pharmacology)” value (M4 PAM Emraclidine) turned out to be 0.1 and the “τ (agonist pharmacology)” value (M4 PAM MK-4710) came to 0.1.
